Source: US10131652B2, “Pyrimidinyloxy benzene derivatives as herbicides” (E. I. DU PONT DE NEMOURS AND COMPANY, priority 2014, dated 2018)
Read-outs that look alike come from different tables or passages of the source.

Legend:
Assay in all cases: Test D pre-/postemergence plant response
Type in all cases: in vivo
[1] = system: Italian ryegrass (Lolium multiflorum); settings: Lolium multiflorum; for pest or weed control at 31 g/ha: 31 g ai/ha; for pest or weed control at 62 g/ha: 62 g ai/ha; for pest or weed control at 125 g/ha: 125 g ai/ha; for pest or weed control at 250 g/ha: 250 g ai/ha
Summary of the method: (§1)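 Plants are held in a greenhouse 13 to 15 days after spraying, then injury is rated by eye relative to controls on a 0 to 100 scale. Treatments are preemergence on freshly sown loam/sand pots or postemergence at 1- to 4-leaf stage in peat-based medium; surfactant-containing solvent formulation.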

[2] = system: barnyardgrass (Echinochloa crus-galli); settings: Echinochloa crus-galli; for pest or weed control at 31 g/ha: 31 g ai/ha, scale 0 to 100 (0 no effect, 100 complete control); for pest or weed control at 62 g/ha: 62 g ai/ha; for pest or weed control at 125 g/ha: 125 g ai/ha; for pest or weed control at 250 g/ha: 250 g ai/ha
Summary of the method: as §1

[3] = system: blackgrass (Alopecurus myosuroides); settings: Alopecurus myosuroides; for pest or weed control at 31 g/ha: 31 g ai/ha; for pest or weed control at 62 g/ha: 62 g ai/ha; for pest or weed control at 125 g/ha: 125 g ai/ha; for pest or weed control at 250 g/ha: 250 g ai/ha
Summary of the method: as §1

corn (Zea mays) = settings: Zea mays; for Corn plant response rating (crop injury, 0 = no effect, 100 = complete kill) at 62 g/ha: 62 g ai/ha
Summary of the method: as §1

[4] = system: galium (catchweed bedstraw, Galium aparine); settings: Galium; for pest or weed control at 31 g/ha: 31 g ai/ha; for pest or weed control at 62 g/ha: 62 g ai/ha; for pest or weed control at 125 g/ha: 125 g ai/ha; for pest or weed control at 250 g/ha: 250 g ai/ha
Summary of the method: as §1

[5] = system: giant foxtail (Setaria faberii); settings: Setaria faberi; for pest or weed control at 31 g/ha: 31 g ai/ha; for pest or weed control at 62 g/ha: 62 g ai/ha; for pest or weed control at 125 g/ha: 125 g ai/ha; for pest or weed control at 250 g/ha: 250 g ai/ha
Summary of the method: as §1

[6] = system: johnsongrass (Sorghum halepense); settings: Sorghum halepense; for pest or weed control at 31 g/ha: 31 g ai/ha; for pest or weed control at 62 g/ha: 62 g ai/ha; for pest or weed control at 125 g/ha: 125 g ai/ha; for pest or weed control at 250 g/ha: 250 g ai/ha
Summary of the method: as §1

[7] = system: lambsquarters (Chenopodium album); settings: Chenopodium album; for pest or weed control at 31 g/ha: 31 g ai/ha; for pest or weed control at 62 g/ha: 62 g ai/ha; for pest or weed control at 125 g/ha: 125 g ai/ha; for pest or weed control at 250 g/ha: 250 g ai/ha
Summary of the method: as §1

[8] = system: large (Lg) crabgrass (Digitaria sanguinalis); settings: Digitaria sanguinalis; for pest or weed control at 31 g/ha: 31 g ai/ha; for pest or weed control at 62 g/ha: 62 g ai/ha; for pest or weed control at 125 g/ha: 125 g ai/ha; for pest or weed control at 250 g/ha: 250 g ai/ha
Summary of the method: as §1

[9] = post-emergence, Postemergence, scale 0 to 100, 0 no effect, 100 complete control, read-out: Plant response rating, Ryegrass, Italian
[10] = pre-emergence, Preemergence, read-out: Plant response rating (scale 0 to 100), Ryegrass, Italian
[11] = pre-emergence, Preemergence, scale 0 to 100 (0 no effect, 100 complete control), read-out: Plant response rating, Ryegrass, Italian
[12] = post-emergence, Postemergence, scale 0 to 100, 0 no effect, 100 complete control, read-out: Plant response rating, Barnyardgrass
[13] = pre-emergence, Preemergence, read-out: Plant response rating (scale 0 to 100), Barnyardgrass
[14] = post-emergence, Postemergence, scale 0 to 100, 0 no effect, 100 complete control, read-out: Plant response rating, Blackgrass
[15] = pre-emergence, Preemergence, read-out: Plant response rating (scale 0 to 100), Blackgrass
[16] = pre-emergence, Preemergence, scale 0 to 100 (0 no effect, 100 complete control), read-out: Plant response rating, Blackgrass
[17] = post-emergence, Postemergence, scale 0 to 100, 0 no effect, 100 complete control, read-out: Plant response rating, Galium
[18] = pre-emergence, Preemergence, read-out: Plant response rating (scale 0 to 100), Galium
[19] = pre-emergence, Preemergence, scale 0 to 100 (0 no effect, 100 complete control), read-out: Plant response rating, Galium
[20] = post-emergence, Postemergence, scale 0 to 100, 0 no effect, 100 complete control, read-out: Plant response rating, Foxtail, Giant
[21] = pre-emergence, Preemergence, read-out: Plant response rating (scale 0 to 100), Foxtail, Giant
[22] = pre-emergence, Preemergence, scale 0 to 100 (0 no effect, 100 complete control), read-out: Plant response rating, Foxtail, Giant
[23] = post-emergence, Postemergence, scale 0 to 100, 0 no effect, 100 complete control, read-out: Plant response rating, Johnsongrass
[24] = pre-emergence, Preemergence, read-out: Plant response rating (scale 0 to 100), Johnsongrass
[25] = pre-emergence, Preemergence, scale 0 to 100 (0 no effect, 100 complete control), read-out: Plant response rating, Johnsongrass
[26] = post-emergence, Postemergence, scale 0 to 100, 0 no effect, 100 complete control, read-out: Plant response rating, Lambsquarters
[27] = pre-emergence, Preemergence, read-out: Plant response rating (scale 0 to 100), Lambsquarters
[28] = pre-emergence, Preemergence, scale 0 to 100 (0 no effect, 100 complete control), read-out: Plant response rating, Lambsquarters
[29] = post-emergence, Postemergence, scale 0 to 100, 0 no effect, 100 complete control, read-out: Plant response rating, Crabgrass, Large
[30] = pre-emergence, Preemergence, read-out: Plant response rating (scale 0 to 100), Crabgrass, Large
[31] = pre-emergence, Preemergence, scale 0 to 100 (0 no effect, 100 complete control), read-out: Plant response rating, Crabgrass, Large

FC(F)c1cc(-c2ccccc2Oc2ncc(Br)cn2)no1 [Compound 62, 5-bromo-2-[2-[5-(difluoromethyl)-3-isoxazolyl]phenoxy]pyrimidine]
pest or weed control at 31 g/ha ([1]; post-emergence, Postemergence, scale 0 to 100 (0 no effect, 100 complete control), read-out: Ryegrass, Italian plant response rating): 5% | pest or weed control at 62 g/ha [1, 9]: 5% | pest or weed control at 125 g/ha [1, 9]: 30% | pest or weed control at 250 g/ha [1, 9]: 40% | pest or weed control at 125 g/ha [1, 10]: 90% | pest or weed control at 250 g/ha [1, 10]: 95% | pest or weed control at 31 g/ha [1, 11]: 40% | pest or weed control at 62 g/ha [1, 11]: 60% | pest or weed control at 31 g/ha ([2]; post-emergence, Postemergence, read-out: Barnyardgrass plant response rating): 50% | pest or weed control at 62 g/ha [2, 12]: 35% | pest or weed control at 125 g/ha [2, 12]: 30% | pest or weed control at 250 g/ha [2, 12]: 95% | pest or weed control at 62 g/ha [2, 13]: 98% | pest or weed control at 125 g/ha [2, 13]: 100% | pest or weed control at 250 g/ha [2, 13]: 100% | pest or weed control at 31 g/ha ([2]; pre-emergence, Preemergence, read-out: Plant response rating, Barnyardgrass): 50% | pest or weed control at 31 g/ha ([3]; post-emergence, Postemergence, scale 0 to 100 (0 no effect, 100 complete control), read-out: Blackgrass plant response rating): 20% | pest or weed control at 62 g/ha [3, 14]: 25% | pest or weed control at 125 g/ha [3, 14]: 40% | pest or weed control at 250 g/ha [3, 14]: 60% | pest or weed control at 125 g/ha [3, 15]: 90% | pest or weed control at 250 g/ha [3, 15]: 90% | pest or weed control at 31 g/ha [3, 16]: 5% | pest or weed control at 62 g/ha [3, 16]: 90% | plant injury at 31 g/ha (corn (Zea mays); post-emergence, Postemergence, 31 g ai/ha, scale 0 to 100 (0 no effect, 100 complete control), read-out: Corn plant response rating): 10% | Corn plant response rating (crop injury, 0 = no effect, 100 = complete kill) at 62 g/ha (corn (Zea mays); post-emergence, Postemergence, scale 0 to 100, 0 no effect, 100 complete control): 10% | Corn plant response rating (crop injury, 0 = no effect, 100 = complete kill) at 125 g/ha (corn (Zea mays); post-emergence, Postemergence, 125 g ai/ha, scale 0 to 100, 0 no effect, 100 complete control): 15% | Corn plant response rating (crop injury, 0 = no effect, 100 = complete kill) at 250 g/ha (corn (Zea mays); post-emergence, Postemergence, 250 g ai/ha, scale 0 to 100, 0 no effect, 100 complete control): 10% | plant injury at 125 g/ha (corn (Zea mays); pre-emergence, Preemergence, 125 g ai/ha, read-out: Plant response rating (scale 0 to 100), Corn): 60% | plant injury at 250 g/ha (corn (Zea mays); pre-emergence, Preemergence, 250 g ai/ha, read-out: Plant response rating (scale 0 to 100), Corn): 70% | Corn plant response rating (crop injury, 0 = no effect, 100 = complete kill) at 31 g/ha (corn (Zea mays); pre-emergence, Preemergence, 31 g ai/ha, scale 0 to 100 (0 no effect, 100 complete control)): 35% | Corn plant response rating (crop injury, 0 = no effect, 100 = complete kill) at 62 g/ha (corn (Zea mays); pre-emergence, Preemergence, scale 0 to 100 (0 no effect, 100 complete control)): 30% | pest or weed control at 31 g/ha ([4]; post-emergence, Postemergence, scale 0 to 100 (0 no effect, 100 complete control), read-out: Galium plant response rating): 85% | pest or weed control at 62 g/ha [4, 17]: 85% | pest or weed control at 125 g/ha [4, 17]: 100% | pest or weed control at 250 g/ha [4, 17]: 100% | pest or weed control at 125 g/ha [4, 18]: 100% | pest or weed control at 250 g/ha [4, 18]: 100% | pest or weed control at 31 g/ha [4, 19]: 100% | pest or weed control at 62 g/ha [4, 19]: 100% | pest or weed control at 31 g/ha ([5]; post-emergence, Postemergence, scale 0 to 100 (0 no effect, 100 complete control), read-out: Foxtail, Giant plant response rating): 25% | pest or weed control at 62 g/ha [5, 20]: 25% | pest or weed control at 125 g/ha [5, 20]: 20% | pest or weed control at 250 g/ha [5, 20]: 55% | pest or weed control at 125 g/ha [5, 21]: 100% | pest or weed control at 250 g/ha [5, 21]: 100% | pest or weed control at 31 g/ha [5, 22]: 95% | pest or weed control at 62 g/ha [5, 22]: 100% | pest or weed control at 31 g/ha ([6]; post-emergence, Postemergence, scale 0 to 100 (0 no effect, 100 complete control), read-out: Johnsongrass plant response rating): 25% | pest or weed control at 62 g/ha [6, 23]: 25% | pest or weed control at 125 g/ha [6, 23]: 75% | pest or weed control at 250 g/ha [6, 23]: 85% | pest or weed control at 125 g/ha [6, 24]: 90% | pest or weed control at 250 g/ha [6, 24]: 98% | pest or weed control at 31 g/ha [6, 25]: 30% | pest or weed control at 62 g/ha [6, 25]: 75% | pest or weed control at 31 g/ha ([7]; post-emergence, Postemergence, scale 0 to 100 (0 no effect, 100 complete control), read-out: Lambsquarters plant response rating): 98% | pest or weed control at 62 g/ha [7, 26]: 98% | pest or weed control at 125 g/ha [7, 26]: 100% | pest or weed control at 250 g/ha [7, 26]: 100% | pest or weed control at 125 g/ha [7, 27]: 98% | pest or weed control at 250 g/ha [7, 27]: 100% | pest or weed control at 31 g/ha [7, 28]: 100% | pest or weed control at 62 g/ha [7, 28]: 95% | pest or weed control at 31 g/ha ([8]; post-emergence, Postemergence, scale 0 to 100 (0 no effect, 100 complete control), read-out: Crabgrass, Large plant response rating): 55% | pest or weed control at 62 g/ha [8, 29]: 35% | pest or weed control at 125 g/ha [8, 29]: 50% | pest or weed control at 250 g/ha [8, 29]: 65% | pest or weed control at 125 g/ha [8, 30]: 100% | pest or weed control at 250 g/ha [8, 30]: 100% | pest or weed control at 31 g/ha [8, 31]: 95% | pest or weed control at 62 g/ha [8, 31]: 100%
